Data on 90 compounds can be found in a melting point compilation (Tetko et al.; mined from patent text by program, amines drawn as free bases though some values may be those of a salt).

In general, melting point refers to the temperature of the solid-liquid transition.

Compound `CC(C)(C)c1cc2c(s1)C(=O)N(c1cccc(Br)c1CO)C2` displayed a melting point of 55 to 56 °C. The result for `NS(=O)(=O)c1cc(Br)cc2c1OS(=O)(=O)C=C2` reads 224 to 228 °C.

The compound `O=CC1=CC(c2ccccc2)(c2ccccc2)CCC1=O` registered a melting point of 126 °C.

Compound `COC(=O)NN=Cc1nc(-c2cccc(C(F)(F)F)c2)[nH]c1C` displayed a melting point of 251 to 252 °C.

Take `Cc1ccnc(C(=O)n2cc(CC(=O)N(C)C)c3ccc(Cl)cc32)c1`: the melting point amounted to 208 °C. Then `CC12CC(=O)C3C(CCC4CC(O)CCC43C)C1CCC2C(=O)COc1ccc(N)cc1` (stereo not given), with 179 to 180 °C; and `CCCCCCCC(=O)OCCCCCCOc1ccc(Nc2ccccc2)cc1`, with 42 to 43 °C.

Consider `O=C(NCc1ccccc1)c1ccccc1I`, for which the melting point fell in the range of 122 to 123 °C. Then `Cc1nc2c(N)nc(-c3ccncc3)nc2[nH]1`, with more than 310 °C; and `CC(C)C(N)CN1CCC(Nc2nc3ccccc3n2Cc2ccc3ccccc3n2)CC1` (stereo not given), with 135 °C. `COc1cc(Nc2c(C#N)cnc3cc(-c4ccsc4CN4CCOCC4)ccc23)c(Cl)cc1Cl` displayed a melting point of 98 to 100 °C.

In turn, `CCOC(=O)c1c(O)c2cnc(-c3ccccc3)nc2n(CCOC)c1=O` registered a melting point of 178 to 179 °C. Then `C[C@H](NC1=NS(=O)(=O)c2sc(Cl)cc2N1)c1ccccc1`, with 195 to 204 °C.

`Cc1ccc(C(=S)c2cc(F)cc3c2NC(=O)C3)cc1`: the melting point fell in the range of 168 to 174 °C. Then `CCONC(=O)c1cc(NCC2CCN(Cc3ccccc3)CC2)ccn1`, with 125 to 130 °C. On to `Cc1nc(C)c(C(=O)Nc2ccc(-n3nc(C(F)(F)F)cc3C3CC3)cc2)s1`, for which the melting point lay within 117 to 122 °C.

In turn, `COc1ccc(C2=NN(Cc3ccccn3)C(=O)[C@H]3CC=CC[C@@H]23)cc1OC` (relative stereo) had a melting point of 146 to 147 °C. In turn, `CC(=O)c1ccc2c(c1)C=CC(=CCl)CO2` gave a melting point of 85 to 90 °C. Then `COc1cccc(C2(c3cccc(OC)c3)CC2(C)C=O)c1` (stereo not given), with 122 to 123 °C; and `N#Cc1ncn2c(-c3cccnc3)ccnc12`, with 258 to 260 °C. Then `CCc1cc(-c2ccc(F)cc2)c(O)cc1OCCCOc1cccc(Oc2ccccc2C(=O)O)c1CC(C)C`, with 48 to 49 °C; and `Cc1ccc([N+](=O)[O-])cc1S(=O)(=O)n1c(Br)nc(Br)c1C`, with 187 to 189 °C. `Oc1ccc(Nc2ccn(Cc3ccccc3)n2)cc1` gave a melting point of 114 to 116 °C. Then `CCc1cnc(N2CCN(C(=O)c3cccc(Nc4ncnc5ccccc45)c3)CC2)nc1`, with 146 to 147 °C; and `C=C(C(=O)N1CCOCC1)c1cccc(-c2cc3c(cc2C)C(C)(C)CCC3(C)C)c1`, with 158 to 159 °C; and `O=S(=O)(N=Cc1cccnc1)c1ccccc1`, with 123 °C. For the compound `Cc1cccnc1COc1nn2c(-c3ccccc3)nnc2cc1N1CCCCC1`, the melting point came to 160 °C. Consider `CS(=O)(=O)c1ccc(-n2nccc2-c2ccc(-c3ccco3)cc2)cc1F`, for which the melting point lay in the range of 155 to 156 °C. Compound `Fc1cccc(F)c1Cn1nnc2c(Cl)nccc21` came in with a melting point of 133 to 139 °C. Then `O=C(O)CCCC(=O)N1C2CCC(C2)C1C(=O)O` (stereo not given), with 155 to 159 °C; and `CC(C)OC(=O)c1cc(N)n(C)n1`, with 86 to 87 °C. Then `CNC(=O)c1cnc2cccc(C)n2c1=O`, with 208 to 210 °C; and `CCCCCc1ccc(-c2ccc(C(=O)O)cc2)cc1`, with 174 °C; and `COc1cccc(C(=O)c2cc3ccc(OC)cc3o2)c1`, with 63 to 65 °C.

On to `CN(C)c1ccc(C=C2SC(=S)N(CC(=O)O)C2=O)cc1`, for which the melting point lay in the range of 260 to 264 °C. The result for `Fc1ccc2c(c1)C(=C1SCCCS1)CCO2` reads 47 to 49 °C; that for `CC(C)(OCc1nn(Cc2ccccc2)c2ccccc12)C(=O)NNC(N)=O`, 174 to 175 °C. On to `CCCc1c(COc2ccc(Cc3nnn(CCCC(=O)O)n3)cc2)ccc(C(C)=O)c1O`, for which the melting point was in the range of 92 to 94 °C. Then `CC(C)c1cccc(C(C)C)c1NC(=O)CSCCCCCCCCCBr`, with 85 to 86 °C. Consider `O=C(O)c1cn(C2CC2)c2nc(N3Cc4ccc(CO)cc4C3)c(F)cc2c1=O`, for which the melting point was more than 300 °C. The result for `Cc1c(C(=O)C2C(=O)CCCC2=O)ccc(S(C)(=O)=O)c1S(C)(=O)=O` reads 301 to 302 °C; that for `O=C(c1cc(Br)cc(Br)c1O)c1cc(Br)cc(Br)c1O`, 179 °C. Then `CCCCCCCCCCCCCCCC(=O)NCCCC`, with 74 to 76 °C. Then `CCc1cc(C(=O)c2ccccc2Cl)c(-n2cnnc2CNC(=O)c2cc3ccccc3n2CC(=O)O)s1`, with 218 to 220 °C. In the case of `Cc1oc(-c2ccco2)nc1COc1ccc(COc2nn(Cc3ccc(OCc4nc(-c5ccco5)oc4C)cc3)cc2CO)cc1`, the melting point is 80 to 81 °C. Take `CCOC=Cc1ncnc2c1ncn2Cc1ccccc1`: the melting point was 114 to 115 °C.

Turning to `CCn1c(N)c(C(=O)NC)c(=O)c2ccc(Cl)nc21`, the melting point is 283 to 286 °C.

As to `O=C(O)CCCc1ccc2sc3ccccc3c2c1`, the melting point is 127 to 128 °C. Then `CCOCCCOc1ccc2c(c1)C(N(CC)S(C)(=O)=O)CC(C)(C)O2` (stereo not given), with 72 to 74 °C; and `CC(C)N(CCN1C(=O)/C(=N/NC(N)=O)c2cc(Cl)ccc21)C(C)C`, with 154 to 155 °C. Consider `COC(=O)Cn1c(=O)[nH]c(=O)c2ccc(Cl)cc21`, for which the melting point lay in the range of 255 to 258 °C. The compound `Cc1cc(C)c2c(=O)[nH]c(-c3cc(C)c(OCCN4CCCC4)c(C)c3)nc2c1` showed a melting point of 181 to 182 °C.

In the case of `CCCCCCCc1ccccc1C=CC(=O)c1ccc(OCC=C(C)C)cc1OCC(=O)O`, the melting point is 118 to 121 °C. In turn, `c1ccc(COc2cccc(Nc3nnc(Cc4ccncc4)c4ccccc34)c2)cc1` came in with a melting point of 142 to 143 °C. Consider `COC1(c2csc(Sc3ccc4c(c3)CCC(=O)N4C)c2)CCOCC1`, for which the melting point lay in the range of 106 to 108 °C. Take `CN(C)C(=CC(=O)C(F)(F)F)NCc1ccc(Cl)nc1`: the melting point came to 85 °C. The result for `CCOC(=O)COc1coc(CCl)cc1=O` reads 98 to 100 °C; that for `OC1(c2ccc(-c3ccccc3)nc2)CN2CCC1CC2` (stereo not given), 214 °C; that for `CCCCC(CNC(C)=O)(Cn1cncn1)c1ccccc1` (stereo not given), 112 to 115 °C. Then `CCOC(=O)C1=C(N(C)C)N=C(C)C(C(=O)OCC)C1c1ccccc1C(F)(F)F` (stereo not given), with 87 °C. The result for `O=C(NC(=O)c1c(F)cccc1F)Nc1cc(Cl)c(Cl)c(Cl)c1` reads 231 to 232 °C; that for `CC(=O)c1cc(C(C)=O)cc(S(N)(=O)=O)c1`, 179 to 181 °C; that for `CN(C)C1CN(c2c(F)cc3c(=O)c(C(=O)O)cn(C4CC4)c3c2F)C1`, 256 to 260 °C. Consider `CCOC(=O)c1cc2cc(CC)ccc2[nH]1`, for which the melting point stood at 94 °C.

The compound `Cc1ccc(C2=NNC(=O)Cc3cc4c(cc32)OCO4)cc1` registered a melting point of 222 to 224 °C. Then `COc1nc(OC)nc(C2CC2)n1`, with 68 to 70 °C; and `CN(C)C(=O)C1CC2CCC1c1[nH]c3ccccc3c12` (stereo not given), with 231 to 232 °C. The result for `CCC(O)c1oc(C)cc(=O)c1O` (stereo not given) reads 134 to 136 °C; that for `Cn1c2ccc([N+](=O)[O-])cc2c2c3c(ccc21)C(=O)OC3=O`, more than 300 °C. Then `CCOC(=O)CCN=c1sc2ccc(Cl)cc2s1`, with 64 to 65 °C; and `O=C(NCC12CC3CC(CC(C3)C1)C2)c1c(Cl)ccc2nc(N3CCC(n4cn[nH]c4=O)CC3)ccc12`, with 294 to 295 °C. In turn, `CCOC(=O)C(NC(=O)OC(C)(C)C)c1csc(N)n1` (stereo not given) came in with a melting point of 143 to 144 °C. Compound `CCOC(=O)c1cn(-c2ncc(Cl)cc2Cl)cn1` had a melting point of 114 to 115 °C. `CON=Cc1ccc2c(c1)ncn2-c1cccc(-c2ncccn2)c1` came in with a melting point of 158 to 159 °C. Then `CCCn1c(=O)c2c(nc(/C=C/c3ccc(OC(=O)c4ccccc4)c(OC(=O)c4ccccc4)c3)n2C)n(CCC)c1=O`, with 231 °C; and `O=c1cc(CO)oc2ccccc12`, with 165 to 167 °C; and `O=C(NCc1ccccn1)Nc1cc(N2CC(COc3ccccc3)CC2=O)ccn1` (stereo not given), with 135 to 137 °C. Then `COC(=O)CCCc1cc2nc(Cl)ccc2n1S(=O)(=O)c1ccc(F)c(F)c1`, with 96 to 98 °C; and `Cc1noc(NS(=O)(=O)c2cc(Cl)ccc2Cl)c1Br`, with 148 to 150 °C. Then `O=C(O)c1c(-c2ccc(Cl)cc2)ccnc1Br`, with 204 to 208 °C; and `CCCCc1nc(Cl)c(CC(=O)OCC)c(Cc2ccc(C(=O)OC(C)(C)C)cc2)n1`, with 65 °C. On to `O=C(N[C@H](Cc1ccc(C(F)(F)F)cc1)[C@@H](O)c1ccc(F)cc1)c1cc(C(F)(F)F)cc(C(F)(F)F)c1` (racemic), for which the melting point is 150 to 151 °C. `CC(C)(C)OC(=O)N[C@@H](CCC(=O)OCc1ccccc1)C(=O)OCc1ccccc1` registered a melting point of 73 to 76 °C. In turn, `CCc1nc2c(C)nc(C)cc2n1-c1ccc(CCOC(=O)NS(=O)(=O)c2ccc(C)cc2)cc1` returned a melting point of 158 °C. The result for `CCN1CCCC1CNC(=O)c1cc(OCC(F)(F)F)ccc1OCC(F)(F)F` (stereo not given) reads 78 to 80 °C; that for `CNS(=O)(=O)N(C)C(=O)CCCl`, 96 °C; that for `CCCCCN(CCC12CC3CC(CC(C3)C1)C2)C(=O)NCCC(C)c1ccncc1` (stereo not given), 93 to 98 °C. Regarding `CCCCNC(=O)Cc1cc(=O)oc2cc(OCc3cccc(Cl)c3)ccc12`, the melting point fell in the range of 112 to 113 °C. The result for `CNc1nc(N)nc2c1nnn2Cc1ccccc1F` reads 252 to 254 °C; that for `O=C(Nc1ccc(Cl)cn1)N[C@@H]1C[C@@H]1c1cccc([N+](=O)[O-])c1` (racemic), 201 to 202 °C.
